How the values were obtained:
obese C57BL/6 mice [1] = assay: Plasma liver markers after 30-day chronic treatment; type: in vivo, mouse
From the text: (§1) In order to determine the long-term effects of the molecules of interest, C57BL/6 mice made obese by means of a high-sucrose, high-fat diet (HSHF: 30% crude fat, 33.5% carbohydrates; ref. E15126-34; ref. E15126-34, SSNIFF, Soest, Germany) for 20 weeks. These mice then received daily an i.p. injection of rimonabant, JM-00.266 (i.e., compound IA) or vehicle for a period of 30 days. In parallel, weight and food intake were monitored every two days following the beginning of the treatment.
Total cholesterol, triglycerides and hepatic markers were assayed by a Dimension Vista Intelligent Lab System (Siemens, Saint-Denis, France) using suitable reagents.

obese C57BL/6 mice [2] = assay: Open-field test after 30-day chronic treatment; type: in vivo, mouse; details: end of 30-day treatment, 10 mg/kg i.p.
Experimental: Locomotor activity of the mice was measured at the conclusion of the chronic treatment with rimonabant or molecule JM-00.266 (i.e., compound IA) by an infrared monitoring system. To that end, the animals were placed individually in 43×43 cm plexiglass boxes (MED associates) for 20 min. Two series of 16 pulsed infrared beams were spaced 2.5 cm apart on opposite walls to record ambulatory X-Y movements at 100 ms resolution. The centre was defined as a central 32×32 cm square. In addition to locomotor activity information, this test makes it possible to predict anxiolytic activity in response to novelty or to an anxiogenic environment. The variables measured in the open field are total ambulatory activity (in cm), the number of entries and the time spent in the central area as well as the distance traversed in the centre divided by the total distance traversed.

obese C57BL/6 mice [3] = assay: Food intake, body weight and body composition (EchoMRI) during 30-day chronic treatment; type: in vivo, mouse
From the text: as §1
The long-term effect of the treatment on body composition was measured using an EchoMRI™ scanner allowing non-invasive analysis of fat mass, lean mass and body fluid composition by nuclear magnetic resonance (NMR) on the live animal without anaesthesia.

obese C57BL/6 mice [4] = assay: OGTT before and after 30-day chronic treatment; type: in vivo, mouse; details: obese mice after 30 days of treatment, 10 mg/kg
Experimental: (§2) In order to evaluate the long-term effects of the treatment on blood glucose control, glucose tolerance (OGTT) and insulin sensitivity (ITT) were evaluated pre- and post-treatment. Thus, for the OGTT the mice were force-fed glucose (2 g/kg), and for the ITT the mice received an i.p. injection of insulin (0.5 IU/kg). In both cases, blood glucose was measured at times t=0, t=15 min, t=30 min, t=45 min, t=60 min, t=90 min, and t=120 min post-glucose ingestion using a Contour®TS blood glucose monitor (ref. 81574201, Bayer HealthCare) and reactive strips (ref. 81574274, Bayer HealthCare).

obese C57BL/6 mice [5] = assay: ITT before and after 30-day chronic treatment; type: in vivo, mouse; details: obese mice after 30 days of treatment, 10 mg/kg
Experimental: as §2

[6] = tested on: CB1R expression in liver explants of ob/ob mice; details: previous study (Jourdan et al. 2012); cited from earlier work
[7] = tested on: CB1R expression in liver explants of ob/ob mice; assay: Liver explant culture, CB1R gene expression (RT-PCR); type: cell-based, mouse; details: liver explants of ob/ob mice treated 21 h, FIG. 1
Experimental: The liver of the mice was perfused in situ, under sodium pentobarbital anaesthesia (50 mg/kg), with Hank's medium (pH 7.4) saturated with oxygen. Next, the liver was sectioned using a Brendel/Vitron slicer (Tucson, Ariz., USA) in the same medium. The liver sections (about 200 μm) were then incubated 21 h in William's medium E (WME) oxygenated and supplemented with deactivated foetal calf serum (10%) and antibiotic/antifungal cocktail (1%) under controlled atmosphere (5% CO2), to which is added either the antagonist to be tested or vehicle.
Total messenger RNA (mRNA) extraction was carried out with Tri Reagent (Euromedex, France) and consecutive synthesis of complementary DNA (cDNA) was carried out from 1 μg of mRNA with the Bio-Rad iScripttm Reverse Transcription super mix kit (Bio-Rad, France).
Gene expression was evaluated by semi-quantitative real-time reverse transcription-polymerase chain reaction (RT-PCR). The primers used were designed using the Primer3Plus software (http://www.bioinformatics.nl/cgi-bin/primer3plus/primer3plus.cgi) and were synthesized by MWG-Biotech (TATA box-binding protein: Sense […], antisense […]; CB1R: Sense […], antisense aaccccacccagtttgaac). Semi-quantification of gene expression was obtained by taking into account the efficacy of each PCR and after standardization with the reporter gene, TATA box-binding protein.

CB1R (pcDNA3.1-mCB1) = target: T1, CB1R (pcDNA3.1-mCB1) (Mus musculus, UniProt P47746); assay: GloSensor cAMP assay in CB1R-transfected HEK293T/17 cells; type: cell-based; details: for cAMP concentrations in the absence of agonist (AEA): HEK293T/17 cells transfected with mCB1, forskolin 1 μM, FIG. 2
T1 construct: expressed in transfected cells; host or cells: HEK293T/17 (ATCC), transient transfection with FuGENE HD
T1 sequence (P47746 whole entry): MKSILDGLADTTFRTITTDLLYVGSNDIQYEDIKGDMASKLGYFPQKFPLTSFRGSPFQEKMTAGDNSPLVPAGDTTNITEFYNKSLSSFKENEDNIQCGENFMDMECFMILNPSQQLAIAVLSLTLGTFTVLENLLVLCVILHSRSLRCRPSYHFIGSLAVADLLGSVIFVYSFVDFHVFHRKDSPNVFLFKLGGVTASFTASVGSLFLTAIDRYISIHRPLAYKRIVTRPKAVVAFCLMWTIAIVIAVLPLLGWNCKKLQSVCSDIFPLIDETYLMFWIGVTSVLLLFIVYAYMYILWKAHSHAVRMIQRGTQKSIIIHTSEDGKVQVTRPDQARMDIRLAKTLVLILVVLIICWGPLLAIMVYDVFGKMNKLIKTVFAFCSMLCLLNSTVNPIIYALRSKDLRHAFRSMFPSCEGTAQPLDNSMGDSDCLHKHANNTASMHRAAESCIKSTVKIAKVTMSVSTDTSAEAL
Experimental: HEK293T/17 (ATCC) cells were cultured in DMEM 10% FCS, then seeded at 30000 cells/well in 96-well plates. After 24 h, the cells were subjected to transient transfection by FuGENE HD (Promega) by pcDNA3.1-mCB1 (50 ng) and pGlo (100 ng) plasmids with or without pertussis toxin (PTX). For the control assays, the cells were transfected with empty pcDNA3 (EV) and pGlo vectors with or without PTX. At 48 h (24 h post-transfection), the cells were loaded for 2 h with 2% GloReagent in CO2-independent medium with 10% FCS (80 μL/well).
The cells were then treated by adding, at t=0, 10 μL/well of Forskolin (FSK) 1 μM final, in order to increase the basal cAMP concentration. The kinetics of appearance of cAMP was monitored for 10 minutes. At t=10, the molecules to be tested were added and the cAMP variations measured for 20 minutes. The light signal was measured in RLU and is expressed as % response relative to the signal read at t=10 min (FSK1 μM). Sigmoidal curves were obtained by measurement at t=10 min after addition of the molecule to be tested (thus t=20 min total) of the percentage of light signal as a function of molecule concentration. The 4PL regression was carried out using the Sigma Plot software and made it possible to obtain an EC50 (1 experiment, n=3).

wild-type C57BL/6 mice = assay: Acute oral glucose tolerance test (OGTT) in wild-type mice; type: in vivo, mouse; details: 10 mg/kg i.p. 10 min before 2 g/kg oral glucose load, wild-type C57Bl/6J mice
Experimental: (§3) In order to evaluate the short-term effects of the rimonabant-like molecules, as well as their selectivity for CB1R, wild-type C57BL/6 mice and CB1R −/− mice underwent an oral glucose tolerance test (OGTT at 2 g/kg) 10 min after i.p. injection of vehicle or of JM-02.003 or JM-00.266 (i.e., compound IA) (10 mg/kg). Blood glucose was measured at times t=0, t=15 min, t=30 min, t=45 min, t=60 min, t=90 min, and t=120 min post-oral. glucose administration using a Contour®TS blood glucose monitor (ref. 81574201, Bayer HealthCare) and reactive strips (ref. 81574274, Bayer HealthCare).

CB1R -/- mice = assay: Acute oral glucose tolerance test (OGTT) in CB1R KO mice; type: in vivo, mouse; details: 10 mg/kg i.p., OGTT 2 g/kg
Experimental: as §3

C57BL/6 mice = assay: Gastrointestinal transit (charcoal), anandamide-induced inhibition; type: in vivo, mouse; details: agonist alone, 10 mg/kg i.p.
Experimental: Transit through the stomach and the intestine was measured via oral administration of vegetable charcoal suspended in gum arabic used herein as nonabsorbable marker. Briefly, following a short fast, C57BL/6 mice were injected intraperitoneally (i.p.) with anandamide (10 mg/kg) in the presence or absence of the molecule of interest JM-00.266 (i.e., compound IA) (10 mg/kg) before oral charcoal administration. 25 minutes later, the animals were sacrificed by cervical dislocation in order to entirely remove the intestine. The distance between the beginning of the pylorus and the location of the charcoal bolus was measured.

[8] = obese mice, 10 mg/kg i.p. daily, 30 days

Q: Which “ALT and AST concentrations in plasma of obese mice versus control” value (obese C57BL/6 mice [1]; 30-day chronic treatment) does the source give for `Cc1c(C(=O)NN2CCCCC2)nn(-c2ccc(Cl)cc2Cl)c1-c1ccc(Cl)cc1` [SR141716, reference compound] here?
A: Its value is “significantly decreased”.

Q: What about the “liver damage markers compared with the control” value (obese C57BL/6 mice [1]; 30-day chronic treatment) of the same molecule?
A: Its value is “does not cause an increase”.

Q: And the ALPI plasma concentration (obese C57BL/6 mice [1]; [8])?
A: Its ALPI plasma concentration is 37.4 ± 2.4.

Q: What about the ALT plasma concentration (obese C57BL/6 mice [1]; [8]) of the same molecule?
A: The ALT plasma concentration was 21.6 ± 2.3 U/L.

Q: And the AST plasma concentration (obese C57BL/6 mice [1]; [8])?
A: Its AST plasma concentration is 46.4 ± 3.1 U/L.

Q: What about the “Gamma GT plasma concentration” value (obese C57BL/6 mice [1]; [8]) of the same molecule?
A: The value was less than 3 U/L.

Q: What about the “Total bilirubin plasma concentration” value (obese C57BL/6 mice [1]; [8]) of the same molecule?
A: The value was less than 2 µmol/L.

Q: What about the motor activity (obese C57BL/6 mice [2]) of the same molecule?
A: Its motor activity is “increases motor activity”.

Q: What about the “time spent in the centre of the arena / anxiety state” value (obese C57BL/6 mice [2]) of the same molecule?
A: The value was “not altered”.

Q: What about the “fat mass versus control mice” value (obese C57BL/6 mice [3]; end of 30-day treatment, NMR) of the same molecule?
A: The value was “lower fat mass”.

Q: And the “lean mass versus control mice” value (obese C57BL/6 mice [3]; end of 30-day treatment, NMR)?
A: Its value is “higher lean mass”.

Q: What about the “body weight relative to control mice” value (obese C57BL/6 mice [3]; [8]) of the same molecule?
A: The value was “lost weight”.

Q: And the “food intake compared with control mice” value (obese C57BL/6 mice [3]; [8])?
A: Its value is “transiently decrease their food intake”.

Q: And the basal blood glucose (obese C57BL/6 mice [4])?
A: Its basal blood glucose is “significant improvement”.

Q: And the “glucose tolerance (OGTT 2 g/kg)” value (obese C57BL/6 mice [4])?
A: The value was “significant improvement”.

Q: What about the “insulin resistance (ITT)” value (obese C57BL/6 mice [5]) of the same molecule?
A: Its value is “improved”.

Q: What about the “CB1R expression in liver explants” value [6] of the same molecule?
A: Its value is “reduced”.

Q: For `CSc1ccc(C2C(N3C(=O)c4ccccc4C3=O)C(=O)N2c2ccccc2)cc1` (stereo not drawn) [JM-00.242], which “hepatic CB1R expression” value [7] is on record?
A: The value was “not selected for the remainder of the study”.

Q: With `COc1cc(OC)cc(N2C(=O)C(N3C(=O)c4ccccc4C3=O)C2c2ccncc2)c1` (stereo not drawn) [JM-02.003] as the molecule, how does the “hepatic CB1R expression” value [7] read?
A: The value was “significant decrease”.

Q: And the “cAMP concentrations in the absence of agonist (AEA)” value (CB1R (pcDNA3.1-mCB1))?
A: Its value is “increased”.

Q: And the “glucose tolerance compared with vehicle” value (wild-type C57BL/6 mice)?
A: Its value is “improves glucose tolerance”.

Q: What about the “improvement in glucose tolerance in CB1R KO mice” value (CB1R -/- mice) of the same molecule?
A: Its value is “persists”.

Q: Which “hepatic CB1R expression” value [7] does the source give for `O=C1C(N2C(=O)c3ccccc3C2=O)C(c2ccncc2)N1Cc1cccc(Cl)c1` (stereo not drawn) [JM-01.1006] here?
A: The value was “significant decrease”.

Q: What about the “cAMP concentrations in the absence of agonist (AEA)” value (CB1R (pcDNA3.1-mCB1)) of the same molecule?
A: The value was “no effect”.

Q: With `CCCCC/C=C\C/C=C\C/C=C\C/C=C\CCCC(=O)NCCO` [AEA, reference compound] as the molecule, how does the “intracellular cAMP concentration on activation of the receptors by agonist” value (CB1R (pcDNA3.1-mCB1); data not shown) read?
A: Its value is “reduction”.

Q: And the gastrointestinal transit (C57BL/6 mice)?
A: The gastrointestinal transit was “strongly inhibited”.

Q: For `CSc1ccc(C2C(N3C(=O)c4ccccc4C3=O)C(=O)N2c2ccc(Cl)cc2)cc1` (stereo not drawn) [JM-00.246], which “hepatic CB1R expression” value [7] is on record?
A: Its value is “not selected for the remainder of the study”.
